1 compound from PMC5781229 (Analytical biochemistry, 2017) can be followed below.

This test deals with TET2 (Homo sapiens, UniProt Q6N021, DEL1481-1843).

For `O=C(O)CCC(=O)C(=O)O` [compound 1, 2KG], the Km was 15.7 µM.
